Experimental data reported in the CheMixHub ionic liquid set.
± gives the uncertainty stated by the source.

Experiment: xn = mol fraction of the nth substance listed

CCCC[n+]1ccn(C)c1.[Br-] + C[C@@H](O)[C@H](N)C(=O)O + O
viscosity [mPa·s], 101.3 kPa
Settings	293.15 K	298.15 K	303.15 K	308.15 K	313.15 K
x2 = 0, x1 = 0.0007203	–	–	–	–	0.674 ± 0.06
x2 = 0.0003632, x1 = 0.00072	1.028 ± 0.061	0.918 ± 0.061	0.825 ± 0.061	0.748 ± 0.061	0.682 ± 0.061
x2 = 0.0003679, x1 = 0.001439	1.053 ± 0.061	0.943 ± 0.061	0.85 ± 0.061	0.773 ± 0.061	0.707 ± 0.061
x2 = 0.0007261, x1 = 0.0007198	1.034 ± 0.061	0.923 ± 0.061	0.829 ± 0.061	0.751 ± 0.061	0.685 ± 0.061
x2 = 0.0007318, x1 = 0.001438	1.059 ± 0.061	0.948 ± 0.061	0.854 ± 0.061	0.776 ± 0.061	0.71 ± 0.061
x2 = 0.001087, x1 = 0.0007195	1.038 ± 0.061	0.927 ± 0.061	0.834 ± 0.061	0.755 ± 0.061	0.689 ± 0.061
x2 = 0.001097, x1 = 0.001438	1.064 ± 0.061	0.952 ± 0.061	0.859 ± 0.061	0.78 ± 0.061	0.714 ± 0.061
x2 = 0.001451, x1 = 0.0007192	1.043 ± 0.061	0.932 ± 0.061	0.838 ± 0.061	0.76 ± 0.061	0.693 ± 0.061
x2 = 0.001461, x1 = 0.001437	1.07 ± 0.061	0.957 ± 0.061	0.863 ± 0.061	0.785 ± 0.061	0.718 ± 0.061
x2 = 0.001813, x1 = 0.000719	1.048 ± 0.061	0.936 ± 0.061	0.843 ± 0.061	0.764 ± 0.061	0.698 ± 0.061
x2 = 0.001828, x1 = 0.001437	1.075 ± 0.061	0.961 ± 0.061	0.868 ± 0.061	0.789 ± 0.061	0.723 ± 0.061
x2 = 0.002175, x1 = 0.0007187	1.053 ± 0.061	0.941 ± 0.061	0.847 ± 0.061	0.769 ± 0.061	0.702 ± 0.061
x2 = 0.002191, x1 = 0.001436	1.079 ± 0.061	0.966 ± 0.061	0.872 ± 0.061	0.794 ± 0.061	0.727 ± 0.061
x2 = 0.002537, x1 = 0.0007185	1.058 ± 0.061	0.946 ± 0.061	0.852 ± 0.061	0.773 ± 0.061	0.707 ± 0.061
x2 = 0.002557, x1 = 0.001436	1.085 ± 0.061	0.97 ± 0.061	0.877 ± 0.061	0.798 ± 0.061	0.732 ± 0.061

CCCC[n+]1ccccc1.O=S(=O)([O-])C(F)(F)F + O
298.15 K, 101 kPa
Settings	electrical conductivity [S/m]
x1 = 0.000164	0.071 ± 0.02
x1 = 0.0004107	0.156 ± 0.02
x1 = 0.0005313	0.208 ± 0.02
x1 = 0.0007077	0.277 ± 0.02
x1 = 0.0008912	0.323 ± 0.02
x1 = 0.001062	0.395 ± 0.02
x1 = 0.001253	0.46 ± 0.02
x1 = 0.001353	0.501 ± 0.02
x1 = 0.001468	0.53 ± 0.02
x1 = 0.001598	0.586 ± 0.02
x1 = 0.001845	0.651 ± 0.02
x1 = 0.001955	0.674 ± 0.02
x1 = 0.002188	0.732 ± 0.02
x1 = 0.002246	0.746 ± 0.02
x1 = 0.002362	0.777 ± 0.02
x1 = 0.002429	0.785 ± 0.02
x1 = 0.002452	0.795 ± 0.02
x1 = 0.002604	0.836 ± 0.02
x1 = 0.002771	0.869 ± 0.02
x1 = 0.00288	0.909 ± 0.02
x1 = 0.003079	0.96 ± 0.02

CS(C)=O + CCC[N+]1(C)CCCC1.O=S(=O)([N-]S(=O)(=O)C(F)(F)F)C(F)(F)F
101 kPa, x2 = 0
Settings	viscosity [mPa·s]
298.15 K	2.118 ± 0.085
308.15 K	1.758 ± 0.071
318.15 K	1.489 ± 0.06
328.15 K	1.28 ± 0.052
338.15 K	1.116 ± 0.045
348.15 K	0.983 ± 0.04
358.15 K	0.874 ± 0.036
